Experimental data as given in publication PMC3048208 (British Journal of Cancer, 2011).
Where a name gives a salt, the structure may show the parent alone. Marks after values point to notes of the source that are not given here.

Tested on: patients with advanced solid tumours
Experiment: Phase I safety: DLT and adverse events (CTCAE v3.0)
Details: for ALT (raised), no. of patients / AST (raised), no. of patients / Abdominal pain, no. of patients / Alkaline phophatase (raised), no. of patients / Altered taste, no. of patients / Anaemia, no. of patients / Anorexia, no. of patients / Bilirubin (raised), no. of patients / Cardiac arrythmia other, no. of patients / Cardiac dysfunction, no. of patients / Cardiac ischaemia, no. of patients / Constipation, no. of patients / Creatinine (raised), no. of patients / Diarrhoea, no. of patients / Fatigue, no. of patients / Leukopenia, no. of patients / Lymphopenia, no. of patients / Mucositis, no. of patients / Myositis, no. of patients / Nausea, no. of patients / Neutropenia, no. of patients / QT prolongation, no. of patients / Supra ventricular arrythmia, no. of patients / Syncope, no. of patients / Thrombocytopenia, no. of patients / Ventricular arrythmias (PVCs), no. of patients / Ventricular bigemini, no. of patients / Vomiting, no. of patients / CPK, no. of patients: All grades
[1] = level 1, 10 mg 3 days every 2 weeks, 3 patients

## CCCCc1nc2cc(/C=C/C(=O)NO)ccc2n1CCN(CC)CC [SB939, 3-[2-butyl-1-(2-diethylaminoethyl)-1H-benzoimidazol-5-yl]-N-hydroxyacrylami-hydrochloride]
60 mg
  Grade 2 raised AST and hyperbilirubinemia, no. of patients: 3
  Grade 3 ALT rise, no. of patients: two
70 mg
  Dose reductions, patients: 2 of 6
90 mg
  Dose reductions, patients: 2 of 2
[1]
  ALT (raised), no. of patients: 0
  AST (raised), no. of patients: 1
  Abdominal pain, no. of patients: 0
  Alkaline phophatase (raised), no. of patients: 1
  Altered taste, no. of patients: 0
  Anaemia, no. of patients: 2
  Anorexia, no. of patients: 0
  Bilirubin (raised), no. of patients: 0
  Cardiac arrythmia other, no. of patients: 0
  Cardiac dysfunction, no. of patients: 0
  Cardiac ischaemia, no. of patients: 0
  Constipation, no. of patients: 0
  Creatinine (raised), no. of patients: 0
  Diarrhoea, no. of patients: 0
  Fatigue, no. of patients: 0
  Leukopenia, no. of patients: 1
  Lymphopenia, no. of patients: 0
  Mucositis, no. of patients: 1
  Myositis, no. of patients: 0
  Nausea, no. of patients: 0
  Neutropenia, no. of patients: 1
  QT prolongation, no. of patients: 0
  Supra ventricular arrythmia, no. of patients: 0
  Syncope, no. of patients: 0
  Thrombocytopenia, no. of patients: 0
  Ventricular arrythmias (PVCs), no. of patients: 0
  Ventricular bigemini, no. of patients: 0
  Vomiting, no. of patients: 0
Level 2, 10 mg, 6 patients
  ALT (raised), no. of patients: 1
  AST (raised), no. of patients: 3
  Abdominal pain, no. of patients: 0
  Alkaline phophatase (raised), no. of patients: 5
  Altered taste, no. of patients: 0
  Anaemia, no. of patients: 6
  Anorexia, no. of patients: 0
  Bilirubin (raised), no. of patients: 1
  CPK, no. of patients: 0
  Cardiac arrythmia other, no. of patients: 0
  Cardiac dysfunction, no. of patients: 0
  Cardiac ischaemia, no. of patients: 0
  Constipation, no. of patients: 0
  Creatinine (raised), no. of patients: 1
  Diarrhoea, no. of patients: 1
  Fatigue, no. of patients: 2
  Leukopenia, no. of patients: 2
  Lymphopenia, no. of patients: 5
  Mucositis, no. of patients: 1
  Myositis, no. of patients: 0
  Nausea, no. of patients: 0
  Neutropenia, no. of patients: 1
  QT prolongation, no. of patients: 1
  Supra ventricular arrythmia, no. of patients: 0
  Syncope, no. of patients: 0
  Thrombocytopenia, no. of patients: 2
  Ventricular arrythmias (PVCs), no. of patients: 1 ^c
  Ventricular bigemini, no. of patients: 1 ^c
  Vomiting, no. of patients: 0
Level 3, 20 mg, 6 patients
  ALT (raised), no. of patients: 2
  AST (raised), no. of patients: 3
  Abdominal pain, no. of patients: 0
  Alkaline phophatase (raised), no. of patients: 4
  Altered taste, no. of patients: 1
  Anaemia, no. of patients: 5
  Anorexia, no. of patients: 2
  Bilirubin (raised), no. of patients: 1
  CPK, no. of patients: 1
  Cardiac arrythmia other, no. of patients: 0
  Cardiac dysfunction, no. of patients: 0
  Cardiac ischaemia, no. of patients: 0
  Constipation, no. of patients: 0
  Creatinine (raised), no. of patients: 1
  Diarrhoea, no. of patients: 1
  Fatigue, no. of patients: 2
  Leukopenia, no. of patients: 1
  Lymphopenia, no. of patients: 2
  Mucositis, no. of patients: 0
  Myositis, no. of patients: 1
  Nausea, no. of patients: 2
  Neutropenia, no. of patients: 1
  QT prolongation, no. of patients: 0
  Supra ventricular arrythmia, no. of patients: 0
  Syncope, no. of patients: 1
  Thrombocytopenia, no. of patients: 1
  Ventricular arrythmias (PVCs), no. of patients: 0
  Ventricular bigemini, no. of patients: 0
  Vomiting, no. of patients: 1
Level 4, 30 mg, 4 patients
  ALT (raised), no. of patients: 2
  AST (raised), no. of patients: 1
  Abdominal pain, no. of patients: 0
  Alkaline phophatase (raised), no. of patients: 2
  Altered taste, no. of patients: 0
  Anaemia, no. of patients: 4
  Anorexia, no. of patients: 0
  Bilirubin (raised), no. of patients: 1
  CPK, no. of patients: 1
  Cardiac arrythmia other, no. of patients: 0
  Cardiac dysfunction, no. of patients: 0
  Cardiac ischaemia, no. of patients: 0
  Constipation, no. of patients: 0
  Creatinine (raised), no. of patients: 2
  Diarrhoea, no. of patients: 1
  Fatigue, no. of patients: 1
  Leukopenia, no. of patients: 2
  Lymphopenia, no. of patients: 2
  Mucositis, no. of patients: 0
  Myositis, no. of patients: 0
  Nausea, no. of patients: 0
  Neutropenia, no. of patients: 2
  QT prolongation, no. of patients: 0
  Supra ventricular arrythmia, no. of patients: 0
  Syncope, no. of patients: 0
  Thrombocytopenia, no. of patients: 0
  Ventricular arrythmias (PVCs), no. of patients: 0
  Ventricular bigemini, no. of patients: 0
  Vomiting, no. of patients: 0
Level 5, 50 mg, 4 patients
  ALT (raised), no. of patients: 0
  AST (raised), no. of patients: 2
  Abdominal pain, no. of patients: 0
  Alkaline phophatase (raised), no. of patients: 2
  Altered taste, no. of patients: 0
  Anaemia, no. of patients: 4
  Anorexia, no. of patients: 1
